Key:
AmGSTF1 [1] = assay: Isothermal titration calorimetry; assay type: binding, Alopecurus myosuroides
Protocol: Coot and reciprocal space refinement using Refmac. Further experimental detail is summarised in
Molecular docking was performed using the GOLD package with CHEMPLP as the target fitness function
12. The structure of the AmGSTF1 in the tetragonal unit cell with both loops in their closed conformation
was used as a starting model for docking. The ligand (GS-NBF) was removed from the binding site. The
search space was defined by the position of the ligand in the cavity with a margin of 10 and 15 Å,
respectively. The ligands were built with Avogadro [XX]. In each case, the starting geometry minimized
using the MMFF94 forcefield [xx]. Each ligand was docked with 30 independent genetic algorithm using
the diverse solution settings in order to explore a maximum parameter space.
Isothermal Titration Calorimetry
AmGSTF1 was dialysed into HEPES buffer (pH 7.6) overnight at 3 °C and the concentration adjusted to
10 µM in a volume of 3 mL. The activity of the enzyme was calculated prior to use according to the
standard CDNB biochemical assay. A solution of the desired ligand (≥ 10 x protein concentration, 200
µL) was prepared in the same HEPES buffer as above. All samples were degassed for 5 minutes prior to
use using a thermovac at 24 °C. AmGSTF1 was incubated in the cell and the ligand in the syringe, […]
experiment run to completion or until no more titrant was available. The data obtained was analysed […]

wildtype AmGSTF1 = assay type: biochemical, Alopecurus myosuroides; settings: 100 µM, 60 min at 20 °C, diluted 1:100, activity towards CDNB
[2] = tested on: HS black-grass (Rothamsted); assay: Petri-dish seedling assay with pendimethalin; assay type: in vivo, Alopecurus myosuroides
MHR black-grass (Peldon) = assay: Petri-dish seedling assay with pendimethalin; assay type: in vivo, Alopecurus myosuroides; settings: for Percentage of normal shoot 14 d after treatment: Peldon-MHR
AmGSTF1 [3] = assay: CDNB assay: inhibition of AmGSTF1-catalysed glutathionylation of CDNB; assay type: biochemical, Alopecurus myosuroides; settings: for CDNB Assay % Inhibition: three replicate measurements
wheat = assay: Preliminary spray trial, companion crop phytotoxicity; assay type: in vivo
[4] = tested on: MHR in black-grass plants; assay: Preliminary spray trial with pinoxaden; assay type: in vivo, Alopecurus myosuroides; settings: black-grass plants exposed to the herbicide pinoxaden
AmGSTF1 [5] = assay: Ligand fishing with strep-tagged AmGSTF1 immobilised on StrepTactin column; assay type: binding, Alopecurus myosuroides; settings: ligand cocktail, each at 100 µM
[6] = Aqueous solubility (qualitative); assay type: physicochemical
AmGSTF1 [7] = assay: Thermal shift assay; assay type: binding, Alopecurus myosuroides; settings: difference in melting temperature compared to no ligand
MHR black-grass plants = assay: Spray assay on three-leaf stage plants with pendimethalin; assay type: in vivo, Alopecurus myosuroides; settings: three-leaf stage (BBCH 13); 70 μM compound 55, 24 h prior to spray with 35 μM pendimethalin
AtGSTF8 = assay: CDNB assay on AtGSTF8 (selectivity); assay type: biochemical, A. thaliana
Protocol: Having established flavonoids as AmGSTF1 ligands with the potential to reverse the MHR phenotype, the scope for optimising their activity, selectivity, and physicochemical profile using synthetic modifications was explored. Using 5,7-dihydroxyflavone (chrysin, 2) as precursor (Fig. 3a), the synthesis of flavonoid derivatives with simple A-ring modifications were undertaken. Each compound was then assessed for its binding to the protein target using both thermal shift assays and by the inhibition of enzyme activity toward CDNB (Table S4 ^‡). The 2-methylchromen-4-one derivative 12 (Table S4; ^‡ entry 11) was synthesised to assess the effect of replacement of the aryl ring at the 2-position (B-ring) with a smaller group. […] Alternative 2-substituents, including amides 16, cyclic amines 17 and (hetero)arenes 18, each introduced from the corresponding carboxylic acid 13, thioether 14 and chloride 15 using standard acylation, SNAr and Pd-catalysed cross-coupling reactions (Fig. 3b). […] However, for these compounds, the assessment of activity was difficult due to their low solubility in aqueous solutions. […] To confirm if the binding observed with these synthetic analogues was specific to AmGSTF1, as determined by the inhibition of CDNB activity, the effect of this flavonoid series on an alternative well described phi class GST from A. thaliana (AtGSTF8), was investigated. […]

[8] = 70 uM compound 55 for 24 h prior to 5 ppm pendimethalin

Structure (SMILES)	CDNB Assay % Inhibition (AmGSTF1 [3]; 10 µM compound) [%]	CDNB Assay % Inhibition (AmGSTF1 [3]; 100 µM compound) [%]	Thermal Shift Assay ∆Tm (AmGSTF1 [7]; 1 µM)	Thermal Shift Assay ∆Tm (AmGSTF1 [7]; 10 µM)	Thermal Shift Assay ∆Tm (AmGSTF1 [7]; 100 µM)	CDNB Assay % Inhibition (AmGSTF1 [3]; 1 µM compound) [%]	also measured
NC(CCC(=O)NC(CSc1ccc([N+](=O)[O-])c2nonc12)C(=O)NCC(=O)O)C(=O)O (stereo not shown) [NBD-SG]	–	–	–	–	–	–	Binding to AmGSTF1 by ITC (AmGSTF1 [1]): binding to AmGSTF1 confirmed; Inhibition vs. DMSO control (wildtype AmGSTF1): 43%; Mean specific activity (wildtype AmGSTF1; mean ± SD, n = 3): 11.2 ± 1.1 nmol s-1 mg-1 protein
CCC(CC)Nc1c([N+](=O)[O-])cc(C)c(C)c1[N+](=O)[O-] [Pendimethalin, pendimethalin, reference compound]	–	–	–	–	–	–	Percentage of normal shoot 14 d after treatment ([2]; 5 ppm pendimethalin alone): 52%; Percentage of normal shoot 14 d after treatment (MHR black-grass (Peldon); 5 ppm pendimethalin alone): 82%
O=c1cc(-c2ccc(O)cc2)oc2cc(O)cc(O)c12 [compound 1, apigenin]	71	87	–	–	–	–	Phytotoxic effect in companion crop (wheat): no adverse phytotoxic effect; Synergistic effect counteracting MHR [4]: clear synergistic effect; Binding/retention by immobilised AmGSTF1 (AmGSTF1 [5]): selectively retained and bound
O=c1c(O)c(-c2ccc(O)c(O)c2)oc2cc(O)cc(O)c12 [compound 3, quercetin, reference compound]	44	94	–	–	–	–	Solubility in aqueous solutions (in words) [6]: high solubility
COc1cc(OC)c2c(=O)cc(-c3nccs3)oc2c1 [compound 23]	23	83	-0.40	-0.47	-0.50	–	Solubility in aqueous solutions (in words) [6]: increased solubility
COc1cc(OC)c2c(=O)cc(-c3ccnn3C)oc2c1 [compound 25]	9	58	0	-0.03	-0.10	–	–
COc1cc(OC)c2c(=O)cc(-c3ccn(C)n3)oc2c1 [compound 26]	19	64	0	-0.03	-0.17	–	–
COc1cc(OC(C)C(=O)O)c2c(=O)cc(-c3ccccc3)oc2c1 (stereo not shown) [compound 41]	14	–	0.20	0.20	1.10	–	–
CCCCCC(Oc1cc(OC)cc2oc(-c3ccccc3)cc(=O)c12)C(=O)O (stereo not shown) [compound 42]	69	–	0.17	0.43	2.33	4	–
CCCCCCCC(Oc1cc(OC)cc2oc(-c3ccccc3)cc(=O)c12)C(=O)O (stereo not shown) [compound 43]	86	–	0.27	0.70	2.93	40	–
CCCCCCCCCC(Oc1cc(OC)cc2oc(-c3ccccc3)cc(=O)c12)C(=O)O (stereo not shown) [compound 44]	97	–	0.40	0.70	0.90	58	–
CCCCCCCCCCC(Oc1cc(OC)cc2oc(-c3ccccc3)cc(=O)c12)C(=O)O (stereo not shown) [compound 45]	99	100	0.30	0.23	1.17	71	–
CCCCCCCCCCCCC(Oc1cc(OC)cc2oc(-c3ccccc3)cc(=O)c12)C(=O)O (stereo not shown) [compound 46]	90	100	0.20	0.73	1.43	75	–
Br.COC(=O)C(CCCCN)Oc1cc(OC)cc2oc(-c3ccccc3)cc(=O)c12 (stereo not shown) [compound 51]	25	–	0.20	0.43	0.57	–	–
CCCCC(=O)NCCCCC(Oc1cc(OC)cc2oc(-c3ccccc3)cc(=O)c12)C(=O)O (stereo not shown) [compound 52]	39	–	0.13	0.30	1.10	6	–
CCCCCCCCCCC(Oc1cc(O)cc2oc(-c3ccc(O)c(O)c3)c(O)c(=O)c12)C(=O)O (stereo not shown) [compound 55]	96	100	0.20	2.17	1.10	70	Pendimethalin resistance in established MHR plants (MHR black-grass plants): reversed pendimethalin resistance; Inhibitory activity toward AmGSTF1 in the CDNB assay (in words) (AmGSTF1 [3]): excellent inhibitory activity; Solubility in aqueous solutions (in words) [6]: sufficient soluble; Selectivity toward AmGSTF1 as compared to AtGSTF8 (AtGSTF8): good selectivity; Percentage of normal shoot 14 d after treatment [2, 8]: 50%; Resistance to pendimethalin in MHR seedlings (MHR black-grass (Peldon); 70 μM compound 55, 24 h prior to 5 ppm pendimethalin, compared to untreated seedlings): reduced; Percentage of normal shoot 14 d after treatment (MHR black-grass (Peldon); [8]): 66%

From PMC8564858, “Flavonoid-based inhibitors of the Phi-class glutathione transferase from black-grass to combat multiple herbicide resistance” (Organic & Biomolecular Chemistry, 2021)
